Data from patent US20100196915A1, “Method of Detecting Oncogenesis of Hematopoietic Cells” (UNIVERSITY OF SOUTH FLORIDA, priority 2007, published 2010).

Tests used:
Format in all cases: cell-based
[1] = test system: 32D cells transformed with IL-27R; test: Cell cycle profile by flow cytometry of PI-stained cells; details: after 24 hr of treatment, FIG. 3(B)
Description: (§1) 32D cells were washed twice with RPMI containing 0.1% BSA and incubated in the same medium with either 0.1% DMSO, 0.5 μM or 2 μM JAK inhibitor I (EMD Biosciences/Calbiochem) for 3 hours before lysis. For cell growth and viability, cells were plated at a concentration of 2×10^5/ml in RPMI/10% FBS and either 0.1% DMSO or 0.5 μM JAK inhibitor I. Cell growth and viability were determined by trypan blue exclusion. After 24 hr of JAK inhibitor I treatment, the percentage of apoptotic cells and cell cycle profiles were determined by flow cytometry. See supporting information.
(§2) Flow Cytometry: Apoptosis and Cell Cycle Analysis. The percentage of apoptotic cells after 24 h JAK inhibitor I treatment was determined by flow cytometric analysis of annexin V-fluorescein (BD Biosciences) binding. […] Four-hundred microliters of 1× binding buffer was added to the samples and the cells were analyzed by flow cytometry. Flow cytometric analysis was performed on a FACS Scan instrument with CellQuest software (BD Biosciences) and data obtained were analyzed with FlowJo software (Tree Star). Cell cycle profiles after 24 h JAK inhibitor I treatment were determined by flow cytometric analysis of PI-stained cells. […] Stained cells were then analyzed by flow cytometry using a FACS Scan with CellQuest software and analyzed with FlowJo software (Tree Star). […]

[2] = test system: 32D cells transformed with IL-27R; test: Cell growth and viability by trypan blue exclusion, JAK inhibitor I studies
Description: as §1
The role of JAK family kinases in transformation by IL-27R was addressed by culturing 32D/IL-27R transformed cells with the pan-JAK inhibitor, JAK inhibitor I (Thompson, J. E., et al., Photochemical preparation of a pyridone containing tetracycle: a Jak protein kinase inhibitor. Bioorg. Med. Chem. Lett., 2002 Apr. 22; 12(8):1219-23). Cells transformed with IL-27R were cultured in the presence of 0.1% DMSO or 0.5 μM JAK inhibitor I on day 0. […] Cell viability, determined using trypan blue, also decreases in the presence of the inhibitor, seen in FIG. 4(A). […] Transformed 32D cells were cultured in the presence of 0.1% DMSO (lane 2), 0.5 μM (lane 3) or 2 μM (lane 4) JAK inhibitor I. Control 32D cells starved of serum/IL-3 in the presence of 0.1% DMSO for three hr is shown in lane 1. […]

[3] = test system: 32D cells transformed with IL-27R; test: Apoptosis by annexin V binding, flow cytometry; details: after 24 hr of treatment, FIG. 4(B)
Description: as §1, §2

JAK family kinases = test: Immunoblot of STAT1, STAT3, STAT5 and ERK1/2 phosphorylation induced by IL-27R; details: 0.5 μM or 2 μM, 3 hours, FIG. 5
Description: Cells were washed in PBS and lysed in lysis buffer (25 mM Tris pH7.4, 150 mM NaCl, 25 mM NaF, 1% Triton-X100, 1 mM sodium vanadate, 2 mM sodium pyrophosphate, 10 μg/ml leupeptin, 2 μg/ml aprotinin, and 1 mM PMSF). Protein concentrations were determined by BCA protein assay kit (Pierce Biotechnology), and equal amounts of protein were analyzed by SDS-PAGE. Primary antibodies used in this study include: IL-27R (TCCR) (C-term) (Sigma), phospho-(P-) STAT1(Y701), P-STAT3(Y705), P-JAK1(Y1022/1023), P-JAK2(Y1007/1008), P-ERK(T202/Y204), JAK1, JAK2 (Cell Signaling Technology), P-STAT5(Y694) (BD Transduction Laboratories), STAT1, STAT3, STAT5, and ERK1 (Santa Cruz Biotechnology). Immunoblots were developed using ECL Western Blotting Substrate (Pierce Biotechnology).
as §1, with “information. […]” for “information.”

[4] = test system: IL-27R-expressing 293T cells; test: IL-27 stimulation and gp130 siRNA depletion, P-STAT1 immunoblot
Description: (§3) To stimulate cell cultures with IL-27, 32D and BaF3 cells expressing IL-27R were washed of growth factors and incubated in RPMI medium 1640 containing 0.1% BSA for 3 h. Cells were left untreated or stimulated with 100 ng/ml recombinant human IL-27 (R&D Systems) for 10 min. 293T cells were transfected with IL-27R, JAK2-V617F, and gp130 siRNA as indicated and as described. Two days later, cells were stimulated with 100 ng/ml human IL-27 for the length of time indicated and washed with ice-cold PBS, and cell lysates were prepared and analyzed by immunoblotting as described.
(§4) Finally, while IL-27R-mediated transformation is gp130-independent, these observations still support the paradigm that IL-27-mediated signaling requires gp130 (Pflanz, S., et al., J. Immunol., 2004 Feb. 15; 172(4):2225-31). […] Cells were left untreated or stimulated with 100 ng/ml IL-27 for 10 min and cell lysates analyzed by immunoblotting for phosphorylated (P-) and total STAT1. IL-27-induced signaling (as measured by STAT1 phosphorylation) is not observed in IL-27R-expressing 32D or BaF3 cells, which lack gp130, but is seen in IL-27R-expressing 293T cells, which express gp130, data not shown. […] Two days later, cells were stimulated with 100 ng/ml IL-27 for the length of time indicated, and cell lysates were prepared and analyzed by immunoblotting for P-STAT1, total STAT1, and gp130. […]

[5] = test system: IL-27R-expressing 32D cells; test: IL-27 stimulation, P-STAT1 immunoblot; details: 100 ng/ml IL-27, 10 min, cells lack gp130
Description: as §3, §4

[6] = test system: IL-27R-expressing BaF3 cells; test: IL-27 stimulation, P-STAT1 immunoblot; details: 100 ng/ml IL-27, 10 min, cells lack gp130
Description: as §3, §4

JAK inhibitor I
cell cycle arrest [1]: induces a G1 as well as a G2 cell cycle arrest
number of cells in S-phase [1]: dramatic decrease
cell growth ([2]; 0.5 μM JAK inhibitor I vs 0.1% DMSO, from day 0, FIG. 3(A)): the growth of these cells ceases
cell viability ([2]; 0.5 μM JAK inhibitor I, trypan blue, FIG. 4(A)): decreases
apoptosis (annexin V binding) [3]: induction of apoptosis
ERK1/2 activation (JAK family kinases): prevents
STAT1, -3 and -5 phosphorylation induced by IL-27R (JAK family kinases): blocks

B1: IL-27: recombinant human IL-27 (R&D Systems), cytokine used to stimulate cells (protein, UniProt Q8NEV9 29-243; Q14213 21-229, looked up)
Interleukin-27 subunit alpha: FPRPPGRPQLSLQELRREFTVSLHLARKLLSEVRGQAHRFAESHLPGVNLYLLPLGEQLPDVSLTFQAWRRLSDPERLCFISTTLQPFHALLGGLGTQGRWTNMERMQLWAMRLDLRDLQRHLRFQVLAAGFNLPEEEEEEEEEEEEERKGLLPGALGSALQGPAQVSWPQLLSTYRLLHSLELVLSRAVRELLLLSKAGHSVWPLGFPTLSPQP
Interleukin-27 subunit beta: RKGPPAALTLPRVQCRASRYPIAVDCSWTLPPAPNSTSPVSFIATYRLGMAARGHSWPCLQQTPTSTSCTITDVQLFSMAPYVLNVTAVHPWGSSSSFVPFITEHIIKPDPPEGVRLSPLAERQLQVQWEPPGSWPFPEIFSLKYWIRYKRQGAARFHRVGPIEATSFILRAVRPRARYYVQVAAQDLTDYGELSDWSLPATATMSLGK
IL-27R/JAK2-V617F-mediated activation of STAT1 ([4]; 100 ng/ml IL-27, 293T cells transfected with IL-27R and JAK2-V617F): not enhanced
IL-27-induced signaling (STAT1 phosphorylation) ([4]; 100 ng/ml IL-27, cells express gp130): is seen
IL-27-induced signaling (STAT1 phosphorylation) [5]: not observed
IL-27-induced signaling (STAT1 phosphorylation) [6]: not observed
